We go through one compound from paper PMC5770468, “Cardiac glycoside/aglycones inhibit HIV-1 gene expression by a mechanism requiring MEK1/2-ERK1/2 signaling” (Scientific Reports, 2018).

Each structure is given as a SMILES string.

One test concerns HIV-1 Gag-GFP expression. Nature of the test: Recovery of HIV-1 Gag-GFP expression by pathway inhibitors in the presence of CSs, HeLa rtTA-HIV(Gag-GFP) cells. As to conditions: 12 μM U0126; 5.5 μM Selumetinib; 10 μM LY294002; 5 µM KB-R7943; CSs at ~IC80. It counts as cell-based. How it is done:
(§1) Figure 5 Effect of modulating NKA expression, [Ca^2+]i, and PI3K-AKT on HIV-1 gene expression. Depletion of the NKA perturbs HIV-1 RNA processing (n ≥ 3, mean, s.e.m.). HeLa rtTA-HIV(Gag-GFP) cells were transduced with two shRNAs (E6/E10) to knockdown expression of the NKA α1 subunit and their effect on HIV-1 gene expression analyzed. After positive selection of cells with puromycin for 24–48 h, HIV-1 expression was Dox induced for 20 h, and cells harvested for analyses. Total mRNA (and protein) was isolated from cells, reverse transcribed, and analyzed by qRT-PCR and data normalized to β-actin (a,c). Results are shown relative to Stuffer (+). (a) Expression levels of NKA α1 mRNAs assayed by qRT-PCR. (b) HIV-1 Gag expression assayed by p24^CA ELISA of cell lysates (40 μg). (c) Accumulation of HIV-1 US (black), SS (white), and MS (gray) mRNAs quantified by qRT-PCR. (d–g) CSs suppress HIV-1 gene expression independent of intracellular Ca^2+ flux/signaling and PI3K-AKT activation. HeLa rtTA-HIV(Gag-GFP) cells were pre-treated with either a chelator of [Ca^2+]i (5 µM BAPTA-AM, [Ca2+]ii), inhibitors of NCX Ca^2+-entry (5 µM KB-R7943, NCXi) or PI3K (10 μM LY294002, PI3Ki), or untreated (DMSO, no pathway inhibitor) for ~2 h prior to treatment with ~IC80s of CSs or DMSO for 4 h, and Dox induced for ~20 h. The pathway used by a CS to inhibit HIV-1 expression was determined by monitoring for recovery of Gag-GFP expression by measuring GFP fluorescence in cell lysates (and initially by plate scans of live/fixed cells, Supplementary Fig. S7a and S8c). (d) Levels of [Ca^2+]i measured by Fura Red AM™ (n ≥ 4, mean, s.e.m.). (e–f) Quantification of Gag-GFP expression by reducing SDS-PAGE in lysates (35 μg) of cells which were pre-treated with/without KB-R7943 (n ≥ 3–4 mean, s.e.m.). […] (g) Graph quantitating Gag expression by p24^CA ELISA in lysates of cells (35 μg) that were pre-treated with/without LY294002 (n ≥ 3, mean, s.e.m.). Statistical comparisons in (a–g) were performed as illustrated (black/gray dashed lines) or described in Methods.
Figure 6 CSs control HIV-1 gene expression through intracellular signaling. HeLa rtTA-HIV(Gag-GFP) cells were pre-treated with/without pathway inhibitor overnight (~15 h) and treated with ~IC80s of CSs. […] Graphs quantifying the activation level (phospho/total protein) of each MAP/MAPK by western blot. […] The signaling pathway(s) used by a CS to inhibit HIV-1 expression was determined by detecting Gag-GFP fluorescence in cell lysates (~35 μg) by reducing SDS-PAGE after pre-treatment of cells with a MEK1/2 (12 μM U0126, white), p38α/β/β2 (15 μM SB203580/p38i, gray), or JNK1/2/3 (1.25 μM SP600125/JNKi, hatched) inhibitor (n ≥ 5–7, 4–8, and 3–7, resp., mean, s.e.m.). […]

In a further test the test system is [Ca^2+]i. Nature of the test: Intracellular Ca2+ by Fura Red AM in HeLa rtTA-HIV(Gag-GFP) cells. It counts as cell-based, human. As to conditions: 5 µM pre-treatment ~2 h. The procedure: as §1, with “(a) Expression levels of NKA α1 mRNAs assayed by qRT-PCR. (b) HIV-1 Gag expression assayed by p24^CA ELISA of cell lysates (40 μg).” left out, “(d–g) CSs suppress HIV-1 gene expression independent of intracellular Ca^2+ flux/signaling and PI3K-AKT activation. HeLa rtTA-HIV(Gag-GFP) cells were pre-treated with either a chelator of [Ca^2+]i (5 µM BAPTA-AM, [Ca2+]ii), inhibitors of NCX Ca^2+-entry (5 µM KB-R7943, NCXi) or PI3K (10 μM LY294002, PI3Ki), or untreated (DMSO, no pathway inhibitor) for ~2 h prior to treatment with ~IC80s of CSs or DMSO for 4 h, and Dox induced for ~20 h.” left out, “Statistical comparisons in (a–g) were performed as illustrated (black/gray dashed lines) or described in Methods.” left out

`N=C(N)SCCc1ccc(OCc2ccc([N+](=O)[O-])cc2)cc1` [KB-R7943]: the “reversal of CS inhibition of HIV-1 Gag-GFP expression by pathway inhibitor pre-treatment” value with HIV-1 Gag-GFP expression is “did not reverse”. For the same compound, in test [Ca^2+]i, the “effect on CS-triggered rise in [Ca^2+]i” value is “blocked”.
